From paper PMC10478957 (Biochemistry, 2023)

What was measured:
[1] = target: BtNosP (Burkholderia thailandensis, UniProt Q2T7C0); test: biochemical; format: binding
[2] = target: T1, BtNosP (Burkholderia thailandensis, UniProt Q2T7C0); format: binding
T1 sequence (Q2T7C0 1-386): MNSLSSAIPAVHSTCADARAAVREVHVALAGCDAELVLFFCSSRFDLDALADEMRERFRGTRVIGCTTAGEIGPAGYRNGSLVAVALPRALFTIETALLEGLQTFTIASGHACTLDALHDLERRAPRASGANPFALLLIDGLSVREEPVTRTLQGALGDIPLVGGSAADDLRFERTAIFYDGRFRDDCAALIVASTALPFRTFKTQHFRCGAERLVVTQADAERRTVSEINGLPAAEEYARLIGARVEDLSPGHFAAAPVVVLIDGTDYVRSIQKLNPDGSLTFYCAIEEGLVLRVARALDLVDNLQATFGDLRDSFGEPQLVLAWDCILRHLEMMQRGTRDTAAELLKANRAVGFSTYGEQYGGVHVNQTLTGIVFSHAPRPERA

Compound | Kd [1] | UV-vis spectroscopy of Fe(II)-NO complex; CO/dithionite trap NO dissociation rat [2]
C=CC1=C(C)C2=Cc3c(C=C)c(C)c4[n]3[Fe]([Cl])[n]3c(c(C)c(CCC(=O)O)c3=CC3=NC(=C4)C(C)=C3CCC(=O)O)=CC1=N2 [hemin] | 530 ± 120 nM | –
[N]=O [nitric oxide] | – | (1.73 ± 0.6) × 10^−4 s^−1
